Series [1] concerns BV-2. The series is described as follows: Cytotoxicity against mouse BV2 cells at 50 uM by MTT assay. Type of series: cell-based. Particulars: bv-2, 50 µM.
The test system of series [2] is BV-2. The series is described as follows: Antiinflammatory activity in mouse BV2 cells assessed as inhibition of LPS-induced nitric oxide production. Type of series: functional, cell-based.

Usually IC50 stands for the point on the concentration scale where inhibition reaches its midpoint.

Bounds are passed on as bounds.

Turning to `COc1ccc(-c2coc3cc(OCC=C(C)C)ccc3c2=O)cc1`, the Activity entry in the series with BV-2 [1] was “Non-Toxic”. Further, the IC50 in the series with BV-2 [2] came out at 45.2 µM. Taken in the same sequence, the figures for `CC(C)=CCOc1ccc2c(=O)c(-c3ccc4c(c3)OCO4)coc2c1` were “Non-Toxic” and 46.6 µM. As to `COc1ccc(-c2coc3c(-c4c(OC)cc([C@@H]5OO[C@@H]5CO)cc4OC)c(O)ccc3c2=O)cc1O`, the Activity entry in the series on BV-2 [1] is on record as “Non-Toxic”. The IC50 with BV-2 [2] was 9 µM.

Take `COc1cc(O)c2c(=O)c(-c3cc(OC)c(O)c(O)c3CC=C(C)C)coc2c1`: in the series on BV-2 [1], the Activity entry is reported as “Non-Toxic”. In addition, in the series with BV-2 [2], the IC50 amounted to 16.5 µM. For the compound `COc1ccc(-c2coc3cc(OCC=C(C)C)ccc3c2=O)cc1OC`, the Activity entry with BV-2 [1] is on record as “Non-Toxic”. Moreover, the IC50 with BV-2 [2] came to 36.9 µM. For `COc1ccc(-c2coc3c(OC)c(OCC=C(C)C)ccc3c2=O)cc1` the same measures were “Non-Toxic” and 35.7 µM. As to `COc1cc(-c2coc3cc(O)ccc3c2=O)cc(O)c1-c1c(OC)cc([C@@H]2OO[C@@H]2CO)cc1OC`, the Activity result in the series on BV-2 [1] was “Non-Toxic”. Further, the IC50 with BV-2 [2] was found to be 19.7 µM. With `COc1ccc(-c2coc3cc(OCC=C(C)C)cc(O)c3c2=O)cc1`, the IC50 in the series on BV-2 [2] was > 50 µM.

With `COc1ccc([C@@H]2COc3cc(O)ccc3C2=O)cc1`, the IC50 with BV-2 [2] was > 50 µM. Still for that read-out and setting: the result for `COc1cc(O)cc(-c2coc3cc(O)ccc3c2=O)c1` reads > 50 µM; that for `COc1ccc(-c2coc3cc(OCC=C(C)C)cc(O)c3c2=O)cc1OC`, > 50 µM. In the case of `COc1cc(O)c([C@@H]2COc3cc(O)ccc3C2=O)c(OC)c1OC`, the Activity result with BV-2 [1] is listed as “Non-Toxic”. Also, the 50% inhibitory concentration (IC50) in the series on BV-2 [2] was 35.8 µM. For the compound `COc1cc(O)cc(-c2coc3cc(O)c(OC)cc3c2=O)c1`, the concentration for half-maximal inhibition (IC50) with BV-2 [2] is > 50 µM. Regarding `COc1ccc([C@@H]2COc3cc(O)ccc3C2=O)c(O)c1`, in the series with BV-2 [1], the Activity entry is “Non-Toxic”. Also, the IC50 in the series with BV-2 [2] is 39.8 µM.

Turning to `COc1ccc([C@@]2(O)COc3cc(OC)ccc3C2=O)c(O)c1`, in the series with BV-2 [2], the IC50 was > 50 µM. In the case of `COc1cc(-c2coc3cc(O)ccc3c2=O)ccc1O`, in the series with BV-2 [1], the Activity result is “Non-Toxic”. Further, the half-maximal inhibitory concentration (IC50) with BV-2 [2] stood at 39.8 µM. On to `COc1cc(-c2coc3cc(O)ccc3c2=O)cc(OC)c1O`, for which, in the series with BV-2 [2], the IC50 was > 50 µM.

Turning to `COc1cc(-c2coc3cc(O)cc(O)c3c2=O)ccc1O` [3'-O-METHYLOROBOL], the IC50 in the series on BV-2 [2] was > 50 µM.

`COc1ccc([C@@H]2COc3cc(O)ccc3C2=O)c(OC)c1` [(3R)-SATIVANONE]: the IC50 in the series with BV-2 [2] is > 50 µM. On the same count and under the same terms, the result for `COc1ccc([C@@H]2COc3cc(O)ccc3C2=O)c(OC)c1O` [(3R)-VIOLANONE] reads > 50 µM. The same measure, in the same setting: then `O=c1c(-c2ccc(O)cc2)coc2cc(O)ccc12` [DAIDZEIN], with > 50 µM. On the same count and under the same terms, then `C[C@@H]1C[C@H]2[C@@H]3CCC4=CC(=O)C=C[C@]4(C)[C@@]3(F)[C@@H](O)C[C@]2(C)[C@@]1(O)C(=O)CO` [DEXAMETHASONE], with 9.5 µM.

`COc1cc(-c2coc3c(CC=C(C)C)c(O)c(CC=C(C)C)c(O)c3c2=O)ccc1O` [FLEMINGSIN]: the concentration for half-maximal inhibition (IC50) in the series with BV-2 [2] was > 50 µM. Consider `COc1ccc(-c2coc3cc(O)ccc3c2=O)cc1` [FORMONONETIN], for which the IC50 with BV-2 [2] was > 50 µM. With `O=c1c(-c2ccc(O)cc2)coc2cc(O)cc(O)c12` [GENISTEIN], in the series with BV-2 [1], the Activity result is reported as “Non-Toxic”. For the same compound, in the series with BV-2 [2], the IC50 came to 28.4 µM. For `COc1ccc(-c2coc3cc(O)cc(O)c3c2=O)cc1O` [PRATENSEIN] the same measures were “Non-Toxic” and 26.3 µM.

The record behind these values is ChEMBL document CHEMBL4184303, “Anti-inflammatory isoflavones and isoflavanones from the roots of Pongamia pinnata (L.) Pierre” (Bioorg Med Chem Lett, 2018).
